Test [1] addresses T1, Nucleosome-remodeling factor subunit BPTF (Homo sapiens, UniProt Q12830). In words: Inhibition of biotinylated-H3K4me2 binding to N-terminal His9 tagged human BPTF isoform 2 PHD (2722 to 2781 residues) expressed in Escherichia coli BL21 Star (DE3) measured after 1 hr by Alphascreen assay. (Alpha assays give light when donor and acceptor beads are brought close together.)
Test [2] concerns the target T1, Nucleosome-remodeling factor subunit BPTF. Briefly: Binding affinity to N-terminal His9 tagged human BPTF isoform 2 PHD (2722 to 2781 residues) expressed in Escherichia coli BL21 Star (DE3) assessed as reduction in proton resonance intensity at 100 uM by 1H CPMG NMR assay relative to control. The arrangement: scale not given: the % may be the effect or the level left.

Test [3] concerns the target Lysine-specific demethylase 5A (Homo sapiens) (UniProt P29375). Briefly: Binding affinity to N-terminal His-tagged human KDM5A PHD3 (1486 to 1690 residues) expressed in Escherichia coli BL21 Star (DE3) assessed as reduction in proton resonance intensity at 100 uM by 1H CPMG NMR assay relative to control. Set-up: scale not given: the % may be the effect or the level left.

Test [4] deals with T1, Nucleosome-remodeling factor subunit BPTF. Briefly: Inhibition of biotinylated-H3K4me2 binding to N-terminal His9 tagged human BPTF isoform 2 PHD (2722 to 2781 residues) expressed in Escherichia coli BL21 Star (DE3) at 2 mM measured after 1 hr by Alphascreen assay relative to control.
For test [5] the target is unchanged. In words: Binding affinity to N-terminal His9 tagged human BPTF isoform 2 PHD (2722 to 2781 residues) expressed in Escherichia coli BL21 Star (DE3) at 400 uM by SPR assay. For orientation: Surface plasmon resonance follows binding to a sensor surface in real time, without labels.
Test [6] shares this target. In words: Binding affinity to N-terminal His9 tagged human BPTF isoform 2 PHD (2722 to 2781 residues) expressed in Escherichia coli BL21 Star (DE3) assessed as change in chemical shift perturbations at 1 mM by 1H,15N HSQC NMR spectroscopy.

The source made the active and inactive calls. The rule behind the calls is not given here.

Lysine-specific demethylase 5A (Homo sapiens), sequence (P29375 whole entry, the tested form may be a part): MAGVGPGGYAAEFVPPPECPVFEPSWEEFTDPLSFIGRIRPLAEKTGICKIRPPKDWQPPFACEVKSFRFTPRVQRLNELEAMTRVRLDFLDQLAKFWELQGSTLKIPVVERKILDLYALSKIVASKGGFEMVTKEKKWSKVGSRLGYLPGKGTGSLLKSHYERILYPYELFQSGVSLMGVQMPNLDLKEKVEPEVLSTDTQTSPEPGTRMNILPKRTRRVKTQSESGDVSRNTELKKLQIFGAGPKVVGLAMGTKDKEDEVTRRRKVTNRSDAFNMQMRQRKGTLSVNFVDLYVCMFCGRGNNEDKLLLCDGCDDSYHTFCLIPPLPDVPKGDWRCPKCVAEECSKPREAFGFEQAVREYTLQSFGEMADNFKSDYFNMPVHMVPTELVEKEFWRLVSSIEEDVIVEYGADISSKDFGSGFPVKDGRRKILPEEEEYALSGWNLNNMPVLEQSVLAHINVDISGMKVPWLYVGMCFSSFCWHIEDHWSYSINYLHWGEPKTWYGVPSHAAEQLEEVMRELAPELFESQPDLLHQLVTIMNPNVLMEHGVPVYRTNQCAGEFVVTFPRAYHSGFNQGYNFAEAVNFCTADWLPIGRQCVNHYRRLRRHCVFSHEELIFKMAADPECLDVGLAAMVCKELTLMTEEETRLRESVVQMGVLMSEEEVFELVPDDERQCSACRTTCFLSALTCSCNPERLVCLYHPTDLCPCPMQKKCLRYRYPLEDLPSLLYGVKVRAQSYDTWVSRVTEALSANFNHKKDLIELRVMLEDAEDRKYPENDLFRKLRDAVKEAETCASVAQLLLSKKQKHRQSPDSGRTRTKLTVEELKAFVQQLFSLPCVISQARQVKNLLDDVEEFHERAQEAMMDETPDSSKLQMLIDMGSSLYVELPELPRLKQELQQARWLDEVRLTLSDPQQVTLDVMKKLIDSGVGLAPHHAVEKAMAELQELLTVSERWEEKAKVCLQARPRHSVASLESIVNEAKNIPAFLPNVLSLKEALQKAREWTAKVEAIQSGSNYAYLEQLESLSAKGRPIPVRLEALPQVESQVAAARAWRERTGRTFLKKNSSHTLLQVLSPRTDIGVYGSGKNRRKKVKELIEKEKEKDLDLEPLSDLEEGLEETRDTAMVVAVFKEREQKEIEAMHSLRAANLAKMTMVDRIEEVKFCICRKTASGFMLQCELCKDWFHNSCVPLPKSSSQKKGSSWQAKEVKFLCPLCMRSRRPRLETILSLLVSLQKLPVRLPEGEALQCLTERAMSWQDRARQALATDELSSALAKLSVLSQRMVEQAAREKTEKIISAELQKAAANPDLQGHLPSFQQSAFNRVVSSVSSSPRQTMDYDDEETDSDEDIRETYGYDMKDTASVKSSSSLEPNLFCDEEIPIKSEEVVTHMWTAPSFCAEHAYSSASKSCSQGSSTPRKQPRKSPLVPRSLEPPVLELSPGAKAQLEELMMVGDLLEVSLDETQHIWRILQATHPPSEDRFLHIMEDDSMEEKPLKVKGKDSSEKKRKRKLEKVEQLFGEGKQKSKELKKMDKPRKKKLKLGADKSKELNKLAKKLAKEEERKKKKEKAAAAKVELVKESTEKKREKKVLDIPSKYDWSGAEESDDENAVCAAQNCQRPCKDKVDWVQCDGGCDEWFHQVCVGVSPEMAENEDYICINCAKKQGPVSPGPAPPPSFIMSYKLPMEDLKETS

On to `CC(=O)N1CCN(c2ccc(Nc3ccc(C)cc3)nn2)CC1`, for which, in test [1] (read-out: IC50), the IC50 – broadly, the midpoint of a concentration-inhibition curve – was 1200 µM.

As to `Cn1nc2c(c1CNC(=O)c1ccc3c(c1)OCO3)CCC2`, the Activity in test [2] is 25%; in test [3] it was less than 20%. Further, the inhibition (in general, the percentage by which the read-out fell short of the control) in test [4] amounted to 71%. For the same compound, in test [5], the result was inactive.

In test [4], `CCS(=O)(=O)N1CCN(c2ccc(Nc3ccc(C)cc3)nn2)CC1` gave an inhibition of 78%.

Take `Cc1ccc(Nc2ccc(Cl)nn2)cc1`: the IC50 entry in test [1] is “Not Determined(Insoluble)”.

Consider `Nc1c2c(nc3c1CCC3)CCCC2` [IPIDACRINE], for which the Activity in test [2] is 50%; in test [3], less than 20%. In addition, in test [1] (read-out: IC50), the IC50 is 590 µM. The outcome in test [5] was Active.

In the case of `Fc1ccc(Nc2ccc(N3CCNCC3)nn2)cc1`, in test [1] (read-out: IC50), the IC50 amounted to 25 µM. Moreover, in test [6], the outcome was inactive.

Take `O=C(CC12CC3CC(CC(C3)C1)C2)N1CCCC1`: the Activity in test [2] was 25%; in test [3], greater than 20%. In addition, the IC50 in test [1] (read-out: IC50) was found to be 500 µM. The result in test [5] was inactive.

`COC1CN(c2nc3ccccc3s2)C1`: the Activity was 30% in test [2] and less than 20% in test [3]. The compound further showed an inhibition in test [4] of 70%. Besides, in test [5], the result was Active.

Consider `Cc1ccc(Nc2ccc(N3CCNCC3)nn2)nc1`, for which the IC50 in test [1] (read-out: IC50) worked out at 30 µM.

For `N#Cc1c(N)sc2c1CCCC2`, the figures for the Activity in test [2] and in test [3] were 60% and greater than 20%, respectively. Further, the IC50 in test [1] (read-out: IC50) came to 130 µM. Besides, the result in test [5] was inactive. For the same compound, the outcome in test [6] was Active.

`Nc1ccnc2c1CCCC2` registered an inhibition in test [4] of 70%.

With `Cc1cccc(CSC2=NCCN2)c1`, the Activity in test [2] was 50%; in test [3], less than 20%. In test [4], this compound returned an inhibition of 83%. Further, the outcome in test [5] was Active.

For `c1ccc(Nc2ccc(N3CCNCC3)nn2)nc1`, the IC50 in test [1] (read-out: IC50) amounted to 20 µM.

Turning to `c1ccc2nc(N3CCOCC3)ccc2c1`, the Activity in test [2] was 35%; in test [3] it was less than 20%. In test [5], the result was inactive.

For `NCC1CC(=O)N(c2ccc(F)c(F)c2)C1` (centres undefined), in test [1] (read-out: IC50), the IC50 stood at 220 µM.

Regarding `Nc1c2c(nc3c1CCC3)CCC2`, the inhibition in test [4] was determined as 60%.

As to `CC(=O)N1CCc2c(sc(N)c2C#N)C1`, the IC50 in test [1] (read-out: IC50) turned out to be 380 µM.

As to `Clc1ccc(N2CCNCC2)nn1`, the IC50 in test [1] (read-out: IC50) stood at 750 µM.

With `Cc1ccc(NC(=O)NCC(C)N2CCCC2)cc1` (centres undefined), the results for the Activity in test [2] and in test [3] were 35% and less than 20%, respectively.

For the compound `NCC1CCN(c2cccc(F)c2)C1` (centres undefined), the Activity was 65% in test [2] and less than 20% in test [3]. Also, in test [1] (read-out: IC50), the IC50 came to 380 µM. Further, the result in test [5] and in test [6] was Active.

In the case of `N#Cc1c(N)sc2c1CCCCC2`, the IC50 in test [1] (read-out: IC50) worked out at 63 µM.

Consider `c1ccc(N2CC3CNCC3C2)cc1` (centres undefined), for which the IC50 in test [1] (read-out: IC50) was found to be 150 µM.

On to `Cc1ccc(Nc2ccc(N3CCNCC3)nn2)cc1`, for which the Activity was 50% in test [2] and less than 20% in test [3]. Besides, the IC50 in test [1] (read-out: IC50) is 300 µM. For the same compound, the result in test [5] was Active. In test [6], the result was inactive.

The values above are taken from ChEMBL document CHEMBL5365551, “Fragment-Based NMR Screening of the BPTF PHD Finger Methyl Lysine Reader Leads to the First Small-Molecule Inhibitors” (ACS Med Chem Lett, 2023).
